From article PMC10449621, “Engineering cellular communication between light-activated synthetic cells and bacteria” (Nature Chemical Biology, 2023)
Values joined by “and” are separate entries in the source; they are usually repeats but may differ in a detail not shown here. Equal values may be shown once.

Legend:
Format in all cases: cell-based, E. coli XL10-Gold
[1] = test system: BjaRS107R (B0034|CTG) receiver cells; experiment: BjaR receiver cell AHSL dose-response (gfp reporter, plate reader)
Description: (§1) After four rounds of random mutagenesis, ON-selection and outgrowth, the OFF- and ON-states of 45 BjaR variants were screened by measuring their GFP fluorescence in the absence and presence of 1 nM IV-HSL. […] To understand the true impact of these mutations on receiver cell performance, the bjaRS107R (CTG) and bjaRWT (ACG) genes were cloned back into the reporter plasmid backbone without kanR.
(§2) The BjaR reporter plasmids were retransformed into E. coli XL10-Gold cells for each experiment. A single colony was used to inoculate 5 ml LB + Amp media and incubated at 37 °C, 225 r.p.m. overnight. Overnight cultures were diluted 1/250 or 1/500 in 5 ml M9 minimal media + Amp and incubated at 37 °C, 225 r.p.m. for 3 h and 45 min (until OD600 = ~0.075). Cultures were diluted down to OD600 = 0.05 with M9 minimal media + Amp, and 200 µl was added to wells of a 96-well plate containing 1 µl IV-HSL dissolved in DMSO or 1 µl BjaI CFPS reactions (IV-HSL concentrations obtained from serial dilution from 63.2 µM to 632 pM; final DMSO concentration = 0.5%). Cells were incubated at 37 °C, 800 r.p.m., in a thermomixer with a heated lid for 4 h. Fluorescence and OD600 were measured in a Tecan M1000 infinite plate reader (excitation, 488 nm; emission, 510 nm; bandwidth, 5 nm; gain, 101 and z position, 21,311 µm). The dose–response curves were fitted to the function indicated by Eq. (1), where a = maximal fluorescence output, b = basal fluorescence output, X = concentration of AHSL, GFP = fluorescence at the given condition, EC50 = AHSL at 50% maximal fluorescence output and h = hill coefficient. EC50 and h were derived using the nonlinear regression model based on Eq. (1), in MATLAB. A summary of the dose–response data is available in Supplementary Table 1.1 GFP=b+a−b/1+10^logEC50−X×h

[2] = test system: BjaRWT (B0034|ACG) receiver cells; experiment: as above
Description: as §1, §2

[3] = test system: BjaRS107R (B0034|CTG) receiver cells; experiment: IV-HSL biosynthesis by BjaI in bulk CFPS reactions, quantified with receiver cells; details: 10 nM
Description: We first validated bjaI expression using bulk CFPS reactions containing (^35S)-methionine to visualize the newly synthesized protein. The full-length BjaI protein (25 kDa) was successfully translated, and its expression was not influenced by the presence of SAM and IV-CoA (Fig. 4b). To establish whether the BjaI was enzymatically active, CFPS reactions containing 80 µM IV-CoA and 300 µM SAM were incubated at 37 °C for 5 h, and then serially diluted and incubated with BjaRS107R (B0034|CTG) receiver cells. Indeed, IV-HSL was successfully synthesized within the CFPS reactions as the reaction mixture containing the complete set of components (bjaI DNA + SAM + IV-CoA) fully activated gfp expression in the receivers, while no fluorescence output was observed from CFPS reactions containing SAM and IV-CoA, but without bjaI DNA template (Fig. 4c,d). […] Similarly, on transferring this system inside GUVs, BjaI-producing synthetic cells also synthesized sufficient IV-HSL to fully activate gfp expression in BjaRS107R (B0033|ATG) receiver cells. […] The loss in specific activity between CFPS performed in bulk compared to inside GUVs was attributed to the loss of inner solution during emulsion phase transfer and when the GUVs ruptured, less efficient CFPS in GUVs compared to in bulk, and absence of gene expression in some GUVs.
In total, 3 µl CFPS reactions were prepared using PURExpress with 0.8 U µl^−1 murine RNase inhibitor, 5 ng µl^−1 linear bjaI DNA template and 300 µM SAM and 80 µM IV-CoA, as indicated. Reactions were incubated for 5 h at 37 °C using a thermal cycler and then serially diluted in Milli-Q H2O. In total, 1 µl of the samples was added to lidded Corning 96-well plates containing 200 µl BjaI receiver cells (pSB1A3 BjaRS107R (CTG) at OD600 = 0.05). Cells were grown at 37 °C, 800 r.p.m. in a thermomixer with a heated lid for 4 h. OD600 and fluorescence were measured using a Tecan infinite M1000 plate reader (Ex, 488 nm; Em, 510 nm; bandwidth, 5 nm; z position, 23,179 µm and gain, 101).

[4] = Escherichia coli, IV-HSL-activated gfp expression

Question: Which EC50 [1, 4] does the source give for `CC(C)CC(=O)N[C@H]1CCOC1=O` [IV-HSL, N-isovaleryl-L-homoserine lactone] here?
Answer: 0.00044 ± 4e-05 µM

Question: What about the GFP ([1]; Log([ASHL]) -6.5) of the same molecule?
Answer: 37925 and 45810 and 36660

Question: What about the Mean normalised fluorescence ([1]; Log([ASHL]) -6.5) of the same molecule?
Answer: 184153

Question: What about the Normalised fluorescence ([1]; Log([ASHL]) -6.5) of the same molecule?
Answer: 205027 and 170089 and 177344

Question: And the GFP ([1]; Log([ASHL]) -7)?
Answer: 36122 and 43880 and 35340

Question: What about the Mean normalised fluorescence ([1]; Log([ASHL]) -7) of the same molecule?
Answer: 165547

Question: And the Normalised fluorescence ([1]; Log([ASHL]) -7)?
Answer: 185321 and 153601 and 157719

Question: What about the GFP ([1]; Log([ASHL]) -7.5) of the same molecule?
Answer: 35735 and 43795 and 35365

Question: And the Mean normalised fluorescence ([1]; Log([ASHL]) -7.5)?
Answer: 163310

Question: What about the Normalised fluorescence ([1]; Log([ASHL]) -7.5) of the same molecule?
Answer: 180638 and 151602 and 157690

Question: And the GFP ([1]; Log([ASHL]) -8)?
Answer: 43912 and 35147 and 35505

Question: What about the Mean normalised fluorescence ([1]; Log([ASHL]) -8) of the same molecule?
Answer: 161376

Question: What about the Normalised fluorescence ([1]; Log([ASHL]) -8) of the same molecule?
Answer: 150185 and 151700 and 182243

Question: And the GFP ([1]; Log([ASHL]) -8.5)?
Answer: 44967 and 35318 and 37269

Question: And the Mean normalised fluorescence ([1]; Log([ASHL]) -8.5)?
Answer: 147580

Question: What about the Normalised fluorescence ([1]; Log([ASHL]) -8.5) of the same molecule?
Answer: 140866 and 144147 and 157727

Question: And the GFP ([1]; Log([ASHL]) -9)?
Answer: 41968 and 33264 and 37415

Question: What about the Mean normalised fluorescence ([1]; Log([ASHL]) -9) of the same molecule?
Answer: 127915

Question: What about the Normalised fluorescence ([1]; Log([ASHL]) -9) of the same molecule?
Answer: 124650 and 118620 and 140474

Question: And the GFP ([1]; Log([ASHL]) -9.5)?
Answer: 22707 and 17817 and 19857

Question: What about the Mean normalised fluorescence ([1]; Log([ASHL]) -9.5) of the same molecule?
Answer: 69560.7

Question: What about the Normalised fluorescence ([1]; Log([ASHL]) -9.5) of the same molecule?
Answer: 65949.9 and 69200.5 and 73531.6

Question: And the GFP ([1]; Log([ASHL]) -10)?
Answer: 5295 and 3943 and 4882

Question: What about the Mean normalised fluorescence ([1]; Log([ASHL]) -10) of the same molecule?
Answer: 15714.4

Question: What about the Normalised fluorescence ([1]; Log([ASHL]) -10) of the same molecule?
Answer: 15242.3 and 14666.4 and 17234.6

Question: What about the GFP ([1]; Log([ASHL]) -10.5) of the same molecule?
Answer: 1534 and 1232 and 1622

Question: What about the Mean normalised fluorescence ([1]; Log([ASHL]) -10.5) of the same molecule?
Answer: 4749.74

Question: And the Normalised fluorescence ([1]; Log([ASHL]) -10.5)?
Answer: 4305.92 and 4298.44 and 5644.87

Question: What about the GFP ([1]; Log([ASHL]) -11) of the same molecule?
Answer: 1122 and 884 and 1057

Question: And the Mean normalised fluorescence ([1]; Log([ASHL]) -11)?
Answer: 3184.98

Question: What about the Normalised fluorescence ([1]; Log([ASHL]) -11) of the same molecule?
Answer: 3030.92 and 3019.01 and 3505.01

Question: And the GFP ([1]; Log([ASHL]) -11.5)?
Answer: 784 and 731 and 617

Question: What about the Mean normalised fluorescence ([1]; Log([ASHL]) -11.5) of the same molecule?
Answer: 2156.19

Question: What about the Normalised fluorescence ([1]; Log([ASHL]) -11.5) of the same molecule?
Answer: 2102.93 and 2315.04 and 2050.6

Question: And the “fold activation of gfp expression” value ([1]; with vs without IV-HSL)?
Answer: ~ 88 fold

Question: And the EC50 [2, 4]?
Answer: 0.0223 ± 0.00259 µM

Question: What about the GFP ([2]; Log([ASHL]) -6.5) of the same molecule?
Answer: 41705 and 34148 and 40466

Question: And the Mean normalised fluorescence ([2]; Log([ASHL]) -6.5)?
Answer: 152634

Question: What about the GFP ([2]; Log([ASHL]) -7) of the same molecule?
Answer: 36443 and 32999 and 38903

Question: What about the Mean normalised fluorescence ([2]; Log([ASHL]) -7) of the same molecule?
Answer: 132540

Question: What about the GFP ([2]; Log([ASHL]) -7.5) of the same molecule?
Answer: 26920 and 30479 and 35001

Question: And the Mean normalised fluorescence ([2]; Log([ASHL]) -7.5)?
Answer: 111442

Question: What about the GFP ([2]; Log([ASHL]) -8) of the same molecule?
Answer: 23596 and 24216 and 12337

Question: What about the Mean normalised fluorescence ([2]; Log([ASHL]) -8) of the same molecule?
Answer: 70550.8

Question: What about the Mean normalised fluorescence ([2]; Log([ASHL]) -8.5) of the same molecule?
Answer: 28355.7

Question: And the Mean normalised fluorescence ([2]; Log([ASHL]) -9)?
Answer: 6838.99

Question: What about the Mean normalised fluorescence ([2]; Log([ASHL]) -9.5) of the same molecule?
Answer: 1496.47

Question: What about the GFP ([2]; Log([ASHL]) -10) of the same molecule?
Answer: 268 and 258 and 219

Question: What about the Mean normalised fluorescence ([2]; Log([ASHL]) -10) of the same molecule?
Answer: 638.735

Question: And the GFP ([2]; Log([ASHL]) -10.5)?
Answer: 198 and 199 and 217

Question: What about the Mean normalised fluorescence ([2]; Log([ASHL]) -10.5) of the same molecule?
Answer: 483.533

Question: And the GFP ([2]; Log([ASHL]) -11)?
Answer: 195 and 198 and 217

Question: What about the Mean normalised fluorescence ([2]; Log([ASHL]) -11) of the same molecule?
Answer: 487.314

Question: And the GFP ([2]; Log([ASHL]) -11.5)?
Answer: 199 and 225 and 193

Question: What about the Mean normalised fluorescence ([2]; Log([ASHL]) -11.5) of the same molecule?
Answer: 497.83

Question: And the “fold activation of gfp expression” value ([2]; with vs without IV-HSL)?
Answer: ~ 309 fold

Question: What about the GFP [3] of the same molecule?
Answer: 45669 and 34133 and 41279

Question: What about the Mean normalised fluorescence [3] of the same molecule?
Answer: 170055

Question: What about the Normalised fluorescence [3] of the same molecule?
Answer: 160035 and 169389 and 180741
